Measurements taken from patent EP2151441A1, “Beta-carbolin-derivates as substrates for an enzyme” (Julius-Maximilians-Universität Würzburg, priority 2008, dated 2010).
Where two headings read alike, the source gives them in different places.

Assays:
[1] = biological target: T1, CYP3A4 (Homo sapiens, UniProt P08684); conditions: cited from earlier work; for Km: according to US 6,207,404 (BFC, BzRes) or Walsky and Obach 2004 (Midazolam)
[2] = biological target: T2, CYP2D6 (Homo sapiens, UniProt P10635); test: Catalytic activity of other CYP enzymes for the reaction of substance 1a; assay type: biochemical; conditions: 2 µM substance 1a, 15 pmol/ml CYP enzyme, Fig. 2
T2 construct: purchased BD Biosciences (Supersomes)
Description: (§1) For the determination of the catalytic activity of other CYP-enzymes with respect to the reaction of substance 1a 2 µM of substance 1a were contacted with 15 pmol/ml CYP enzyme (Supersomes®, BD Biosciences) and 2 mM NADPH in 100 mM potassium phosphate puffer (pH 7.4; 3 mM MgCl2) with the exception of CYP3A4 that was used at a concentration of 5 pmol/ml.

[3] = biological target: T3, CYP1B1 (Homo sapiens, UniProt Q16678); test: as above; assay type: biochemical; conditions: 2 µM substance 1a, 15 pmol/ml CYP enzyme, Fig. 2
T3 construct: purchased BD Biosciences (Supersomes)
T3 sequence (Q16678 1-543): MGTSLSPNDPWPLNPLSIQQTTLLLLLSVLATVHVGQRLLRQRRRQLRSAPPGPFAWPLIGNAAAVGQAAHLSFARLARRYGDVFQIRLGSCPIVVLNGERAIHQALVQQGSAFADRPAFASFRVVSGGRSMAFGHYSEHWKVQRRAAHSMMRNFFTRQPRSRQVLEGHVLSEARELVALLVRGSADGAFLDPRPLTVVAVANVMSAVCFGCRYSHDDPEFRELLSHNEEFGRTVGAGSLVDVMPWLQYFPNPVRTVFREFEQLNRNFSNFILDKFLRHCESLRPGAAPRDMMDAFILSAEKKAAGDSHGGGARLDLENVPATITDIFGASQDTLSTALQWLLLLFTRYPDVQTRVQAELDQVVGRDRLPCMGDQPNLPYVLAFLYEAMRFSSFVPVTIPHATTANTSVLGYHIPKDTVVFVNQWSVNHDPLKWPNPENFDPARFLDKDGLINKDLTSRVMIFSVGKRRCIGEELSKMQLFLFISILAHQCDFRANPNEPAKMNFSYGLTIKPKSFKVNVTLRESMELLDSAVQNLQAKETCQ
Description: as §1

[4] = biological target: T4, recombinant human CPY3A4 (Homo sapiens, UniProt P08684); test: Catalytic activity of CYP3A4 for the reaction with substance 1a; assay type: biochemical
T4 construct: purchased BD Biosciences (Supersomes)
Description: After incubation for 20 minutes at 37°C the metabolite 1b was quantified using liquid chromatography followed by mass spectrometry. For this reaction 4.5 pmol/min/pmol CYP3A4 could be determined as activity of the enzyme. According to US 6,207,404 the activity of CYP3A4 for the reaction of BFC at a concentration of 50 µM is about 1.5 pmol/min/pmol CYP3A4. […] For the determination of the catalytic activity of other CYP-enzymes with respect to the reaction of substance 1a 2 µM of substance 1a were contacted with 15 pmol/ml CYP enzyme (Supersomes®, BD Biosciences) and 2 mM NADPH in 100 mM potassium phosphate puffer (pH 7.4; 3 mM MgCl2) with the exception of CYP3A4 that was used at a concentration of 5 pmol/ml.

[5] = biological target: T1, CYP3A4; test: Determination of Km and Vmax of the CYP3A4-catalyzed O-dealkylation reaction (LC-MS quantification of reaction product 1b); assay type: biochemical; parameters: purchased BD Biosciences (Supersomes); conditions: Vmax comparison with BFC
Description: The Michaelis-Menten constant (Km) and the maximal reaction velocity (Vmax) are important parameters for inhibition assays. To determine the inhibitory activity of test compounds the substrate concentration in the assay should be about the Km value. […] After incubation for 20 minutes at 37°C the reaction product 1b was quantified using mass spectrometry after liquid chromatography. […] For the calculation of Km and Vmax the Sigma Plot 10.0 software with enzyme kinetic module (SPSS, Inc., Chicago, IL, USA) was used.

[6] = according to US 6,207,404 (BzRes) or Walsky and Obach 2004 (Midazolam)

T1 sequence (P08684 whole entry): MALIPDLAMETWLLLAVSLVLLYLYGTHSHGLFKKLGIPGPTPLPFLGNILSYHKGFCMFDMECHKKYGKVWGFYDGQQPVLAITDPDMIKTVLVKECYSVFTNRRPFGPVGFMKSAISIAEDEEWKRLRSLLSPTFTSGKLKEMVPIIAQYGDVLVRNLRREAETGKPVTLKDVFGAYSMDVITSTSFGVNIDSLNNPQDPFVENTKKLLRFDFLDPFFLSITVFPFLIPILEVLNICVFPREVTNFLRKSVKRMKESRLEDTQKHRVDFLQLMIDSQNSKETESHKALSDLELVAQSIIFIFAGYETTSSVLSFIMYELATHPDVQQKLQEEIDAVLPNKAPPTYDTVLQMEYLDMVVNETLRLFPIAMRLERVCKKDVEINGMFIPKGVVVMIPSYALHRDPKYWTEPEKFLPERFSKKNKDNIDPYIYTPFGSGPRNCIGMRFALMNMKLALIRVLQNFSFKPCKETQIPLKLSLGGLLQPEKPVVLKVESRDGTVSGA
T4 sequence (P08684 whole entry): as above
T2 sequence (P10635 whole entry): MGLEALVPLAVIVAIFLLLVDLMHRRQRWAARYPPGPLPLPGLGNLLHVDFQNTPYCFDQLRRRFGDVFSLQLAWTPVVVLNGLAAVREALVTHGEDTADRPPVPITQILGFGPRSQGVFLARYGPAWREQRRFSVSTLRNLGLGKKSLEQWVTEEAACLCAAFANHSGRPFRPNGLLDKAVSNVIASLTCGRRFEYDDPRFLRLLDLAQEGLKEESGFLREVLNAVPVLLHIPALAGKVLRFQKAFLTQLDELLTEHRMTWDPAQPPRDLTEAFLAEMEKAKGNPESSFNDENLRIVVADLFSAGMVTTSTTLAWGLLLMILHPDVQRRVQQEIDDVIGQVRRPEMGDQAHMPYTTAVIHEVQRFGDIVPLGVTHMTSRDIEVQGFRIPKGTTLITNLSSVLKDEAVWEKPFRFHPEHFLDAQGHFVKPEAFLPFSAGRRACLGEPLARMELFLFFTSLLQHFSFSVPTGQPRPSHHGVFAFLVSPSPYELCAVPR

O=c1cc(C(F)(F)F)c2ccc(OCc3ccccc3)cc2o1 [BFC, 7-benzyloxy-4-trifluoromethylcumarin]
activity of CYP3A4 for the reaction of BFC ([1]; BFC at a concentration of 50 µM, according to US 6,207,404): about 1.5 pmol/min/pmol CYP3A4
Km [1]: > 200 µM
Vmax ([1]; at 40 µM BFC, according to US 6,207,404): 1.5 (at 40 µM BFC) pmol/min/pmol CYP3A4

O=c1ccc2nc3ccc(OCc4ccccc4)cc3oc-2c1 [BzRes, benzyloxyresorufin]
Km [1]: 38 µM
Vmax [1, 6]: 0.3 pmol/min/pmol CYP3A4

Cc1ncc2n1-c1ccc(Cl)cc1C(c1ccccc1F)=NC2 [Midazolam]
Km [1]: 0.6 µM
Vmax [1, 6]: 16.3 pmol/min/pmol CYP3A4

Cc1c2[nH]c3cc(OCc4ccccc4)ccc3c2cc[n+]1Cc1ccccc1.O=C([O-])C(F)(F)F [Substance 1a, 2-benzyl-7-benzyloxy-1-methyl-9H-pyrido[3,4-b]indol-2-ium trifluoroacetate salt]
reaction of substrate 1a to reaction product 1b catalyzed by enzyme [2]: could be catalyzed
reaction of substrate 1a to reaction product 1b catalyzed by enzyme [3]: could be catalyzed
activity of the enzyme relative to the reaction of BFC ([4]; 2 µM 1a versus 50 µM BFC): 3 fold
activity of the enzyme ([4]; 2 µM substance 1a, 5 pmol/ml CYP3A4, 2 mM NADPH, 20 minutes at 37°C): 4.5 pmol/min/pmol CYP3A4
reaction of substrate 1a to reaction product 1b catalyzed by enzyme ([4]; 2 µM substance 1a, CYP3A4 at 5 pmol/ml, Fig. 2): could be catalyzed
reaction velocity relative to BFC [5]: about 5 fold
